# Source: ChEMBL document CHEMBL1134446, “Polyamine analogue antidiarrheals: a structure-activity study” (J Med Chem, 2001)
# Several values for one entry are separate records, joined by “and”; a condition that tells them apart may be missing. Equal values may be shown once.
# What was measured:
# Format in all cases: functional
# Rattus norvegicus [1] = assay: Stool output of rat over the 6-h collection period when a dose of 5.3 mg/kg (11.6 administered
# Rattus norvegicus [2] = assay: Weight loss of rat over the 6-h experimental period when a dose of 0 mg/kg (0 administered
# Rattus norvegicus [3] = assay: Weight loss of rat over the 6-h experimental period when a dose of 10.7 mg/kg (23.2 administered
# Rattus norvegicus [4] = assay: Weight loss of rat over the 6-h experimental period when a dose of 5.3 mg/kg (11.6 administered
# Rattus norvegicus [5] = assay: Percent reduction was determined by using the ratio of mean of treated animal to that of control animal at a dose of 5.3 mg/kg
# Rattus norvegicus [6] = assay: Stool output of rat over the 6-h collection period when a dose of 0 mg/kg (0 administered
# Rattus norvegicus [7] = assay: Stool output of rat over the 6-h collection period when a dose of 10.7 mg/kg (23.2 administered
# Rattus norvegicus [8] = assay: Percent reduction was determined by using the ratio of mean of treated animal to that of control animal at a dose of 10.7 mg/kg
# Rattus norvegicus [9] = assay: Stool output of rat over the 6-h collection period when a dose of 28.2 mg/kg (57.8 administered
# Rattus norvegicus [10] = assay: Stool output of rat over the 6-h collection period when a dose of 5.7 mg/kg (11.6 administered
# Rattus norvegicus [11] = assay: Weight loss of rat over the 6-h experimental period when a dose of 1.1 mg/kg (2.3 administered
# Rattus norvegicus [12] = assay: Weight loss of rat over the 6-h experimental period when a dose of 28.2 mg/kg (57.8 administered
# Rattus norvegicus [13] = assay: Weight loss of rat over the 6-h experimental period when a dose of 5.7 mg/kg (11.6 administered
# Rattus norvegicus [14] = assay: Percent reduction was determined by using the ratio of mean of treated animal to that of control animal at a dose of 28.2 mg/kg
# Rattus norvegicus [15] = assay: Stool output of rat over the 6-h collection period when a dose of 1.1 mg/kg (2.3 administered
# [16] = The acute toxicity was determined in female CD1 mice after (ip) administration; settings: Mus musculus
# Rattus norvegicus [17] = assay: Stool output of rat over the 6-h collection period when a dose of 1 mg/kg (2.3 administered
# Rattus norvegicus [18] = assay: Stool output of rat over the 6-h collection period when a dose of 2.5 mg/kg (5.8 administered
# Rattus norvegicus [19] = assay: Stool output of rat over the 6-h collection period when a dose of 25 mg/kg (57.6 uM) was given orally; settings: route oral
# Rattus norvegicus [20] = assay: Stool output of rat over the 6-h collection period when a dose of 50 mg/kg (115.6 uM) was given orally; settings: route oral
# Rattus norvegicus [21] = assay: Stool output of rat over the 6-h collection period when a dose of 5 mg/kg (11.6 administered
# Rattus norvegicus [22] = assay: Weight loss of rat over the 6-h experimental period when a dose of 0 mg/kg (0 uM) was given orally; settings: route oral
# Rattus norvegicus [23] = assay: Weight loss of rat over the 6-h experimental period when a dose of 1 mg/kg (2.3 administered
# Rattus norvegicus [24] = assay: Weight loss of rat over the 6-h experimental period when a dose of 2.5 mg/kg (5.8 administered
# Rattus norvegicus [25] = assay: Weight loss of rat over the 6-h experimental period when a dose of 25 mg/kg (57.6 uM) was given orally; settings: route oral
# Rattus norvegicus [26] = assay: Weight loss of rat over the 6-h experimental period when a dose of 50 mg/kg (115.6 uM) was given orally; settings: route oral
# Rattus norvegicus [27] = assay: Weight loss of rat over the 6-h experimental period when a dose of 5 mg/kg (11.6 administered
# Rattus norvegicus [28] = assay: Percent reduction was determined by using the ratio of mean of treated animal to that of control animal at a dose of 2.5 mg/kg
# Rattus norvegicus [29] = assay: Percent reduction was determined by using the ratio of mean of treated animal to that of control animal at a dose of 25 mg/kg
# Rattus norvegicus [30] = assay: Percent reduction was determined by using the ratio of mean of treated animal to that of control animal at a dose of 5 mg/kg
# Rattus norvegicus [31] = assay: Percent reduction was determined by using the ratio of mean of treated animal to that of control animal at a dose of 50 mg/kg
# Rattus norvegicus [32] = assay: Stool output of rat over the 6-h collection period when a dose of 12.5 mg/kg (28.9 uM) was given orally; settings: route oral
# Rattus norvegicus [33] = assay: Percent reduction was determined by using the ratio of mean of treated animal to that of control animal at a dose of 12.5 mg/kg
# Rattus norvegicus [34] = assay: Percent reduction was determined by using the ratio of mean of treated animal to that of control animal at a dose of 1 mg/kg
# Rattus norvegicus [35] = assay: Stool output of rat over the 6-h collection period when a dose of 0 mg/kg (0 uM) was given orally; settings: route oral
# Rattus norvegicus [36] = assay: Weight loss of rat over the 6-h experimental period when a dose of 12.5 mg/kg (28.9 uM) was given orally; settings: route oral
# Rattus norvegicus [37] = assay: Stool output of rat over the 6-h collection period when a dose of 24.87 mg/kg (57.8 administered
# Rattus norvegicus [38] = assay: Stool output of rat over the 6-h collection period when a dose of 4.97 mg/kg (11.6 uMl) was administered
# Rattus norvegicus [39] = assay: Weight loss of rat over the 6-h experimental period when a dose of 0.03125 mg/kg (0.0726 administered
# Rattus norvegicus [40] = assay: Weight loss of rat over the 6-h experimental period when a dose of 0.0625 mg/kg (0.145 administered
# Rattus norvegicus [41] = assay: Weight loss of rat over the 6-h experimental period when a dose of 0.125 mg/kg (0.29 administered
# Rattus norvegicus [42] = assay: Weight loss of rat over the 6-h experimental period when a dose of 0.25 mg/kg (0.58 administered
# Rattus norvegicus [43] = assay: Weight loss of rat over the 6-h experimental period when a dose of 0.5 mg/kg (1.16 administered
# Rattus norvegicus [44] = assay: Weight loss of rat over the 6-h experimental period when a dose of 0.99 mg/kg (2.3 administered
# Rattus norvegicus [45] = assay: Weight loss of rat over the 6-h experimental period when a dose of 0.0078 mg/kg (0.0181 administered
# Rattus norvegicus [46] = assay: Weight loss of rat over the 6-h experimental period when a dose of 0.0156 mg/kg (0.036 administered
# Rattus norvegicus [47] = assay: Weight loss of rat over the 6-h experimental period when a dose of 24.87 mg/kg (57.8 administered
# Rattus norvegicus [48] = assay: Weight loss of rat over the 6-h experimental period when a dose of 4.97 mg/kg (11.6 administered
# Rattus norvegicus [49] = assay: Percent reduction was determined by using the ratio of mean of treated animal to that of control animal at a dose of 24.87 mg/kg
# Rattus norvegicus [50] = assay: Percent reduction was determined by using the ratio of mean of treated animal to that of control animal at a dose of 4.97 mg/kg
# Rattus norvegicus [51] = assay: Stool output of rat over the 6-h collection period when a dose of 0.0078 mg/kg (0.0181 administered
# Rattus norvegicus [52] = assay: Stool output of rat over the 6-h collection period when a dose of 0.0156 mg/kg (0.036 administered
# Rattus norvegicus [53] = assay: Stool output of rat over the 6-h collection period when a dose of 0.03125 mg/kg (0.0726 administered
# Rattus norvegicus [54] = assay: Stool output of rat over the 6-h collection period when a dose of 0.0625 mg/kg (0.145 administered
# Rattus norvegicus [55] = assay: Stool output of rat over the 6-h collection period when a dose of 0.125 mg/kg (0.29 administered
# Rattus norvegicus [56] = assay: Stool output of rat over the 6-h collection period when a dose of 0.25 mg/kg (0.58 administered
# Rattus norvegicus [57] = assay: Stool output of rat over the 6-h collection period when a dose of 0.5 mg/kg (1.16 administered
# Rattus norvegicus [58] = assay: Stool output of rat over the 6-h collection period when a dose of 0.99 mg/kg (2.3 administered
# Rattus norvegicus [59] = assay: Percent reduction was determined by using the ratio of mean of treated animal to that of control animal at a dose of 0.5 mg/kg
# Rattus norvegicus [60] = assay: Percent reduction was determined by using the ratio of mean of treated animal to that of control animal at a dose of 0.0078 mg/kg
# Rattus norvegicus [61] = assay: Percent reduction was determined by using the ratio of mean of treated animal to that of control animal at a dose of 0.0156 mg/kg
# Rattus norvegicus [62] = assay: Percent reduction was determined by using the ratio of mean of treated animal to that of control animal at a dose of 0.03125 mg/kg
# Rattus norvegicus [63] = assay: Percent reduction was determined by using the ratio of mean of treated animal to that of control animal at a dose of 0.0625 mg/kg
# Rattus norvegicus [64] = assay: Percent reduction was determined by using the ratio of mean of treated animal to that of control animal at a dose of 0.125 mg/kg
# Rattus norvegicus [65] = assay: Percent reduction was determined by using the ratio of mean of treated animal to that of control animal at a dose of 0.25 mg/kg
# Rattus norvegicus [66] = assay: Percent reduction was determined by using the ratio of mean of treated animal to that of control animal at a dose of 0.99 mg/kg
compound,measurement,setting,value
CC(C)CNCCCNCCCCNCCCNCC(C)C,Stool output,Rattus norvegicus [1],>5.1 g (350g of rat weight)-1
same,Weight loss,Rattus norvegicus [2],18.2 g
same,Weight loss,Rattus norvegicus [3],<5 g
same,Weight loss,Rattus norvegicus [4],<11.1 g
same,Reduction,Rattus norvegicus [5],39%
same,Stool output,Rattus norvegicus [6],7.2 g (350g of rat weight)-1
same,Stool output,Rattus norvegicus [7],>1.6 g (350g of rat weight)-1
same,Reduction,Rattus norvegicus [8],78%
CC(C)CCNCCCNCCCCNCCCNCCC(C)C,Stool output,Rattus norvegicus [9],<0 g (350g of rat weight)-1
same,Stool output,Rattus norvegicus [10],>7.8 g (350g of rat weight)-1
same,Weight loss,Rattus norvegicus [2],14.6 g
same,Weight loss,Rattus norvegicus [11],>14.2 g
same,Weight loss,Rattus norvegicus [12],<1.6 g
same,Weight loss,Rattus norvegicus [13],>18.3 g
same,Reduction,Rattus norvegicus [14],89% and 100%
same,Stool output,Rattus norvegicus [6],4.6 g (350g of rat weight)-1
same,Stool output,Rattus norvegicus [15],>4.9 g (350g of rat weight)-1
CC(C)NCCCNCCCCNCCCNC(C)C,LD50,[16],125 mg/kg
same,Stool output,Rattus norvegicus [17],<2.9 g (350g of rat weight)-1
same,Stool output,Rattus norvegicus [18],<0 g (350g of rat weight)-1
same,Stool output,Rattus norvegicus [19],<0 g (350g of rat weight)-1
same,Stool output,Rattus norvegicus [20],<0 g (350g of rat weight)-1
same,Stool output,Rattus norvegicus [21],<0.9 g (350g of rat weight)-1
same,Weight loss,Rattus norvegicus [2],11.8 g
same,Weight loss,Rattus norvegicus [22],17.2 g
same,Weight loss,Rattus norvegicus [23],<6.9 g
same,Weight loss,Rattus norvegicus [24],<4.2 g
same,Weight loss,Rattus norvegicus [25],<3.6 g
same,Weight loss,Rattus norvegicus [26],<3.2 g
same,Weight loss,Rattus norvegicus [27],<4.4 g
same,Reduction,Rattus norvegicus [28],64% and 100%
same,Reduction,Rattus norvegicus [29],79% and 100%
same,Reduction,Rattus norvegicus [30],63% and 87%
same,Reduction,Rattus norvegicus [31],81% and 100%
same,Stool output,Rattus norvegicus [6],6.8 g (350g of rat weight)-1
same,Stool output,Rattus norvegicus [32],<3.6 g (350g of rat weight)-1
same,Reduction,Rattus norvegicus [33],49% and 50%
same,Reduction,Rattus norvegicus [34],42% and 57%
same,Stool output,Rattus norvegicus [35],7.2 g (350g of rat weight)-1
same,Weight loss,Rattus norvegicus [36],<8.7 g
CCNCCCNC1CCC(NCCCNCC)CC1 (configuration not stated),Stool output,Rattus norvegicus [37],<0 g (350g of rat weight)-1
same,Stool output,Rattus norvegicus [38],<0 g (350g of rat weight)-1
same,Weight loss,Rattus norvegicus [39],<4.2 g
same,Weight loss,Rattus norvegicus [40],<3.7 g
same,Weight loss,Rattus norvegicus [41],<4.1 g
same,Weight loss,Rattus norvegicus [42],<2.7 g
same,Weight loss,Rattus norvegicus [43],<2.9 g
same,Weight loss,Rattus norvegicus [44],<2.7 g
same,Weight loss,Rattus norvegicus [2],11.6 g
same,Weight loss,Rattus norvegicus [45],<8.8 g
same,Weight loss,Rattus norvegicus [46],<3.1 g
same,Weight loss,Rattus norvegicus [47],<0.8 g
same,Weight loss,Rattus norvegicus [48],<1.6 g
same,Reduction,Rattus norvegicus [49],93% and 100%
same,Reduction,Rattus norvegicus [50],86% and 100%
same,Stool output,Rattus norvegicus [51],>3.6 g (350g of rat weight)-1
same,Stool output,Rattus norvegicus [52],<0.4 g (350g of rat weight)-1
same,Stool output,Rattus norvegicus [53],<0 g (350g of rat weight)-1
same,Stool output,Rattus norvegicus [54],<0 g (350g of rat weight)-1
same,Stool output,Rattus norvegicus [55],<0 g (350g of rat weight)-1
same,Stool output,Rattus norvegicus [56],<0 g (350g of rat weight)-1
same,Stool output,Rattus norvegicus [57],<0 g (350g of rat weight)-1
same,Stool output,Rattus norvegicus [58],<0 g (350g of rat weight)-1
same,Stool output,Rattus norvegicus [6],4.9 g (350g of rat weight)-1
same,Reduction,Rattus norvegicus [59],75% and 100%
same,Reduction,Rattus norvegicus [60],24%
same,Reduction,Rattus norvegicus [61],73% and 92%
same,Reduction,Rattus norvegicus [62],64% and 100%
same,Reduction,Rattus norvegicus [63],68% and 100%
same,Reduction,Rattus norvegicus [64],65% and 100%
same,Reduction,Rattus norvegicus [65],77% and 100%
same,Reduction,Rattus norvegicus [66],77% and 100%
